Assay results published in patent US8871679B2, “Fungicidal mixtures comprising substituted 1-methylpyrazol-4-ylcarboxanilides” (BASF SE, priority 2008, dated 2014).
Where two headings read alike, the source gives them in different places.

What was measured:
Type in all cases: cell-based
[1] = system: Alternaria solani; assay: Microtiter test, activity against Alternaria solani (Use Example 4); conditions: 7 days
[2] = system: Septoria tritici; assay: Microtiter test, activity against leaf blotch on wheat caused by Septoria tritici (Use Example 3); conditions: for inhibition of growth at 16 ppm / inhibition of growth at 63 ppm / inhibition of growth at 4 ppm: Zymoseptoria tritici, 168 h, read-out: Observed efficacy
[3] = system: Leptosphaerium nodorum; assay: Microtiter test, activity against Leptospharium nodorum (Use Example 6); conditions: compound alone, 7 days
[4] = system: Pyricularia oryzae
[5] = system: Fusarium culmorum; assay: Microtiter test, activity against Fusarium culmorum (Use Example 7); conditions: compound alone, 7 days
[6] = system: Colletotrichum truncatum; assay: Microtiter test, activity against Colletotrichum truncatum (Use Example 5); conditions: compound alone, 7 days
[7] = Alternaria solani, 168 h, 63 ppm, compound alone, read-out: Observed efficacy
[8] = 0.016 ppm, compound alone, day 7
[9] = 0.25 ppm, compound alone, day 7
[10] = Alternaria solani, 168 h, read-out: Observed efficacy

Question: With `Cc1c(COC(=O)[C@@H]2[C@H](/C=C(\Cl)C(F)(F)F)C2(C)C)cccc1-c1ccccc1` (racemic) [Bifenthrin, bifenthrin] as the molecule, how does the inhibition of growth at 63 ppm [1, 7] read?
Answer: 1%

Question: Which results are given for `CC1(C)[C@H](C(=O)O[C@H](C#N)c2cccc(Oc3ccccc3)c2)[C@@H]1/C=C(\Cl)C(F)(F)F` (racemic) [lambda-Cyalothrin, lambda-cyhalothrin]?
Answer: inhibition of growth at 16 ppm ([2]; 16 ppm, compound alone, day 7): 10%; inhibition of growth at 63 ppm ([2]; 63 ppm, compound alone, day 7): 29%

Question: How did the Observed efficacy ([1]; 0.063 ppm, compound alone) turn out when `Cn1cc(C(=O)Nc2ccccc2C2CC2C2CC2)c(C(F)F)n1` (single isomer, unassigned) [Sedaxane (trans diastereoisomer), N-(trans-2-bicycloprop-2-ylphenyl)-3-difluoromethyl-1-methyl-1H-pyrazole-4-carboxamide] was run?
Answer: 0%

Question: And the Observed efficacy ([1]; 0.25 ppm, compound alone)?
Answer: 20%

Question: And the Observed efficacy ([3]; 0.25 ppm)?
Answer: 17%

Question: What about the Observed efficacy [4, 8] of the same molecule?
Answer: 1%

Question: And the Observed efficacy [2, 9]?
Answer: 57%

Question: And the Observed efficacy ([5]; 0.25 ppm)?
Answer: 2%

Question: And the Observed efficacy ([6]; 0.25 ppm)?
Answer: 3%

Question: With `COP(=O)(NC(C)=O)SC` (centres unmarked) [Acephate, acephate] as the molecule, how does the inhibition of growth at 1 ppm [1, 10] read?
Answer: 3%

Question: And the inhibition of growth at 4 ppm [2]?
Answer: 2%

Question: For `CNC(=O)O/N=C/C(C)(C)SC` [Aldicarb, aldicarb], which inhibition of growth at 16 ppm [2] is on record?
Answer: 7%

Question: What does the source list for `Cn1cc(C(=O)Nc2ccc(F)cc2-c2ccc(Cl)c(Cl)c2)c(C(F)F)n1` [Bixafen, bixafen]?
Answer: Observed efficacy [1]: 0%; Observed efficacy ([3]; 0.25 ppm): 16%; Observed efficacy ([4]; 0.063 ppm, compound alone, day 7): 6%; Observed efficacy [4, 9]: 6%; Observed efficacy [2]: 48%; Observed efficacy ([6]; 0.25 ppm): 6%

Question: Which results are given for `CCOCn1c(-c2ccc(Cl)cc2)c(C#N)c(Br)c1C(F)(F)F` [Chlorfenapyr, chlorfenapyr]?
Answer: Observed efficacy ([3]; 63 ppm): 8%; Observed efficacy ([4]; 4 ppm, compound alone, day 7): 17%; Observed efficacy ([4]; 63 ppm, compound alone, day 7): 38%; inhibition of growth at 16 ppm ([2]; 16 ppm, compound alone, day 7): 8%

Question: With `CC1(C)[C@H](C(=O)O[C@H](C#N)c2cccc(Oc3ccccc3)c2)[C@@H]1C=C(Br)Br` [Deltamethrin, deltamethrin] as the molecule, how does the inhibition of growth at 1 ppm [1, 10] read?
Answer: 0%

Question: What about the inhibition of growth at 4 ppm [1, 10] of the same molecule?
Answer: 5%

Question: And the inhibition of growth at 16 ppm [1, 10]?
Answer: 0%

Question: What about the Observed efficacy ([4]; 4 ppm, compound alone, day 7) of the same molecule?
Answer: 0%

Question: And the inhibition of growth at 16 ppm [2]?
Answer: 0%

Question: And the inhibition of growth at 63 ppm [2]?
Answer: 3%

Question: With `CNC(=O)CSP(=S)(OC)OC` [Dimethoate, dimethoate] as the molecule, how does the inhibition of growth at 4 ppm [2] read?
Answer: 2%

Question: Which inhibition of growth at 16 ppm [1, 10] does the source give for `O=S1OCC2C(CO1)C1(Cl)C(Cl)=C(Cl)C2(Cl)C1(Cl)Cl` (centres unmarked) [Endosulfan, endosulfan] here?
Answer: 13%

Question: What about the Observed efficacy ([3]; 63 ppm) of the same molecule?
Answer: 5%

Question: And the Observed efficacy ([4]; 16 ppm, compound alone, day 7)?
Answer: 22%

Question: What about the Observed efficacy ([4]; 63 ppm, compound alone, day 7) of the same molecule?
Answer: 73%

Question: What about the inhibition of growth at 16 ppm [2] of the same molecule?
Answer: 3%

Question: And the inhibition of growth at 63 ppm [2]?
Answer: 26%

Question: What about the Observed efficacy ([6]; 63 ppm) of the same molecule?
Answer: 8%

Question: With `CC(C)([CH2][Sn]([CH2]C(C)(C)c1ccccc1)([CH2]C(C)(C)c1ccccc1)[O][Sn]([CH2]C(C)(C)c1ccccc1)([CH2]C(C)(C)c1ccccc1)[CH2]C(C)(C)c1ccccc1)c1ccccc1` [Fenbutadin-oxyd, fenbutatin oxide] as the molecule, how does the Observed efficacy [4] read?
Answer: 39%

Question: What does the source list for `Cc1cc(C(F)(C(F)(F)F)C(F)(F)F)ccc1NC(=O)c1cccc(I)c1C(=O)NC(C)(C)CS(C)(=O)=O` [Flubendiamid, flubendiamide]?
Answer: inhibition of growth at 63 ppm [1, 7]: 0%; Observed efficacy ([3]; 63 ppm): 22%; Observed efficacy ([4]; 4 ppm, compound alone, day 7): 0%; Observed efficacy ([4]; 63 ppm, compound alone, day 7): 15%; inhibition of growth at 63 ppm ([2]; 63 ppm, compound alone, day 7): 37%; Observed efficacy ([5]; 63 ppm): 3%; Observed efficacy ([6]; 63 ppm): 0%

Question: Which results are given for `CC1(C)CNC(=NN=C(/C=C/c2ccc(C(F)(F)F)cc2)/C=C/c2ccc(C(F)(F)F)cc2)NC1` [Hydramethylnon, hydramethylnon]?
Answer: inhibition of growth at 1 ppm [1, 10]: 7%; Observed efficacy ([4]; 4 ppm, compound alone, day 7): 5%; inhibition of growth at 16 ppm [2]: 0%; inhibition of growth at 63 ppm [2]: 4%

Question: `Cn1cc(C(=O)Nc2ccccc2-c2cc(F)c(F)c(F)c2)c(C(F)F)n1` [Ia, N-(3′,4′,5′-trifluorobiphenyl-2-yl)-3-difluoro-methyl-1-methyl-1H-pyrazole-4-carboxamide] was tested. Which Observed efficacy [1] did it give?
Answer: 29%

Question: What about the Observed efficacy ([4]; 0.004 ppm, compound alone, day 7) of the same molecule?
Answer: 3%

Question: What about the Observed efficacy [2] of the same molecule?
Answer: 29%

Question: How did the Observed efficacy ([1]; 16 ppm, compound alone) turn out when `COC(=O)N(C(=O)N1CO[C@@]2(C(=O)OC)Cc3cc(Cl)ccc3C2=N1)c1ccc(OC(F)(F)F)cc1` [Indoxacarb, indoxacarb] was run?
Answer: 0%

Question: And the Observed efficacy ([4]; 1 ppm, compound alone, day 7)?
Answer: 0%

Question: And the Observed efficacy ([2]; 16 ppm, compound alone, day 7)?
Answer: 9%

Question: What about the Observed efficacy ([2]; 63 ppm, compound alone, day 7) of the same molecule?
Answer: 19%

Question: Which Observed efficacy [1] does the source give for `CC(C)C1C2CCC1c1c(NC(=O)c3cn(C)nc3C(F)F)cccc12` (centres unmarked) [Isopyrazam, isopyrazam] here?
Answer: 2%

Question: And the Observed efficacy ([3]; 0.25 ppm)?
Answer: 13%

Question: And the Observed efficacy [4, 8]?
Answer: 15%

Question: And the Observed efficacy [2]?
Answer: 58%

Question: What about the Observed efficacy ([6]; 0.25 ppm) of the same molecule?
Answer: 14%

Question: Which results are given for `COP(N)(=O)SC` (centres unmarked) [Methamidophos, methamidophos]?
Answer: inhibition of growth at 1 ppm [1, 10]: 8%; inhibition of growth at 63 ppm [1, 10]: 0%; inhibition of growth at 4 ppm [2]: 5%

Question: Which results are given for `Cc1nn(C)c(F)c1C(=O)Nc1ccccc1C(C)CC(C)C` (centres unmarked) [Penflufen, N-[2-(1,3-dimethylbutyl)-phenyl]-1,3-dimethyl-5-fluor-1H-pyrazole-4-carboxamide]?
Answer: Observed efficacy [1]: 0%; Observed efficacy [4, 9]: 5%; Observed efficacy [2]: 44%

Question: How did the inhibition of growth at 16 ppm [2] turn out when `CCOP(=S)(OCC)SCSC(C)(C)C` [Terbufos, terbufos] was run?
Answer: 14%

Question: How did the inhibition of growth at 63 ppm [1, 10] turn out when `CC1(C)C(C=C(Cl)Cl)C1C(=O)OC(C#N)c1cccc(Oc2ccccc2)c1` (stereo not drawn) [alpha-Cypermethrin, alpha-cypermethrin] was run?
Answer: 0%

Question: What about the Observed efficacy ([4]; 63 ppm, compound alone, day 7) of the same molecule?
Answer: 41%

Question: abamectin was tested. Which Observed efficacy ([1]; 1 ppm, compound alone) did it give?
Answer: 2%
